Data taken from patent US12268782B2, “Preparation method of fatty acid liposome for VC encapsulation” (Jiangnan University, priority 2020, dated 2025).

Assay: Degradation of VC in deionized water over time at different temperatures (FIG. 1)
Assay type: physicochemical
Description: Vitamin C (VC), also known as L-ascorbic acid, is a main component of common food additives and cosmetics, and can serve as a vitamin supplement and an antioxidant in cosmetics. However, VC is very unstable in neutral or alkaline aqueous solutions.

For O=C1O[C@H]([C@@H](O)CO)C(O)=C1O [VC, L-ascorbic acid], the “degradation rate of VC” value (deionized water, 6 h, temperature higher than 50° C.) was 80% and the “VC degrades (degradation)” value (initial concentration 0.27 mg/mL in deionized water, 25° C., after 12 h) was 29%.
